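Interpolation was linear, between the two tested concentrations surrounding the appropriate level; five concentrations were tested over 48 hours in 96-well plates. The concentration for full growth arrest is given as TGI.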
What was measured:
Assay in all cases: inhibition of tumour cell growth, NCI panel, 48 h
[1] = system: 786-0 renal
[2] = system: A498 renal
[3] = system: A549 NSCLC
[4] = system: ACHN renal
[5] = system: BT-549 breast
[6] = system: CAKI-1 renal
[7] = system: CCRF-CEM leukemia
[8] = system: COLO 205 colon
[9] = system: DU-145 prostate
[10] = system: EKVX NSCLC
[11] = system: HCC-2998 colon
[12] = system: HCT-116 colon
[13] = system: HCT-15 colon
[14] = system: HL-60(TB) leukemia
[15] = system: HOP-62 NSCLC
[16] = system: HOP-92 NSCLC
[17] = system: HS 578T breast
[18] = system: HT29 colon
[19] = system: IGROV1 ovarian
[20] = system: K-562 leukemia
[21] = system: KM12 colon
[22] = system: LOX IMVI melanoma
[23] = system: M14 melanoma
[24] = system: MALME-3M melanoma
[25] = system: MCF7 breast
[26] = system: MDA-MB-231 breast
[27] = system: MDA-MB-435
[28] = system: MDA-N
[29] = system: MOLT-4 leukemia
[30] = system: NCI-H226 lung
[31] = system: NCI-H23 lung
[32] = system: NCI-H460 lung
[33] = system: NCI-H522 lung
[34] = system: NCI/ADR-RES ovarian
[35] = system: OVCAR-3 ovarian
[36] = system: OVCAR-4 ovarian
[37] = system: OVCAR-5 ovarian
[38] = system: OVCAR-8 ovarian
[39] = system: PC-3 prostate
[40] = system: RXF 393 renal
[41] = system: SF-268 CNS
[42] = system: SF-295 CNS
[43] = system: SF-539 CNS
[44] = system: SK-MEL-2 melanoma
[45] = system: SK-MEL-28 melanoma
[46] = system: SK-MEL-5 melanoma
[47] = system: SK-OV-3 ovarian
[48] = system: SN12C renal
[49] = system: SNB-19 CNS
[50] = system: SNB-75 CNS
[51] = system: SR leukemia
[52] = system: SW-620 colon
[53] = system: T-47D breast
[54] = system: TK-10 renal
[55] = system: U251 CNS
[56] = system: UACC-257 melanoma
[57] = system: UACC-62 melanoma
[58] = system: UO-31 renal
[59] = system: RPMI-8226 leukemia

For `C=C1CC[C@H](O)C(C)(C)[C@@H]1CC/C(C)=C/CC/C=C(\C)CC/C=C(\C)CCC=C(C)C`, the TGI [1] was > 100 µM, the TGI [2] was > 100 µM and the TGI [3] was > 100 µM. The TGI [4] was > 100 µM, the TGI [5] was > 100 µM and the TGI [6] was > 100 µM. The TGI [7] was > 100 µM, the TGI [8] was > 100 µM and the TGI [9] was > 100 µM. For the same compound, the TGI [10] was > 100 µM, the TGI [11] was > 100 µM and the TGI [12] was > 100 µM. For the same compound, the TGI [13] was > 100 µM, the TGI [14] was 69 µM and the TGI [15] was > 100 µM. The TGI [16] was > 100 µM, the TGI [17] was > 100 µM and the TGI [18] was > 100 µM. For the same compound, the TGI [19] was > 100 µM, the TGI [20] was > 100 µM and the TGI [21] was > 100 µM. For the same compound, the TGI [22] was > 100 µM, the TGI [23] was > 100 µM and the TGI [24] was > 100 µM. The TGI [25] was > 100 µM, the TGI [26] was > 100 µM and the TGI [27] was > 100 µM. For the same compound, the TGI [28] was > 100 µM, the TGI [29] was > 100 µM and the TGI [30] was > 100 µM. For the same compound, the TGI [31] was > 100 µM, the TGI [32] was > 100 µM and the TGI [33] was > 100 µM. For the same compound, the TGI [34] was > 100 µM, the TGI [35] was > 100 µM and the TGI [36] was > 100 µM. The TGI [37] was > 100 µM, the TGI [38] was > 100 µM and the TGI [39] was > 100 µM. For the same compound, the TGI [40] was 51.9 µM, the TGI [41] was > 100 µM and the TGI [42] was > 100 µM. The TGI [43] was > 100 µM, the TGI [44] was > 100 µM and the TGI [45] was > 100 µM. The TGI [46] was > 100 µM, the TGI [47] was > 100 µM and the TGI [48] was > 100 µM. For the same compound, the TGI [49] was > 100 µM, the TGI [50] was > 100 µM and the TGI [51] was > 100 µM. The TGI [52] was > 100 µM, the TGI [53] was 59.3 µM and the TGI [54] was > 100 µM. The TGI [55] was > 100 µM, the TGI [56] was > 100 µM and the TGI [57] was > 100 µM. The TGI [58] was > 100 µM.

For `Cc1ccccc1N=Nc1ccc(N/N=C2/CCCNC2=O)c(C)c1`, the TGI [1] was > 100 µM, the TGI [2] was > 100 µM and the TGI [3] was > 100 µM. The TGI [4] was > 100 µM, the TGI [5] was > 100 µM and the TGI [6] was > 100 µM. For the same compound, the TGI [7] was > 100 µM, the TGI [8] was > 100 µM and the TGI [9] was > 100 µM. The TGI [10] was > 100 µM, the TGI [11] was > 100 µM and the TGI [12] was > 100 µM. For the same compound, the TGI [13] was > 100 µM, the TGI [14] was > 100 µM and the TGI [15] was > 100 µM. For the same compound, the TGI [16] was > 100 µM, the TGI [17] was > 100 µM and the TGI [18] was > 100 µM. For the same compound, the TGI [19] was > 100 µM, the TGI [20] was > 100 µM and the TGI [21] was > 100 µM. The TGI [22] was > 100 µM, the TGI [23] was > 100 µM and the TGI [24] was > 100 µM. For the same compound, the TGI [25] was > 100 µM, the TGI [26] was > 100 µM and the TGI [27] was > 100 µM. For the same compound, the TGI [28] was > 100 µM, the TGI [29] was > 100 µM and the TGI [30] was > 100 µM. The TGI [31] was > 100 µM, the TGI [32] was > 100 µM and the TGI [33] was > 100 µM. For the same compound, the TGI [34] was > 100 µM, the TGI [36] was > 100 µM and the TGI [37] was > 100 µM. The TGI [39] was > 100 µM, the TGI [59] was > 100 µM and the TGI [40] was > 100 µM. The TGI [41] was > 100 µM, the TGI [42] was > 100 µM and the TGI [44] was > 100 µM. For the same compound, the TGI [45] was > 100 µM, the TGI [46] was > 100 µM and the TGI [47] was > 100 µM. For the same compound, the TGI [48] was > 100 µM, the TGI [49] was > 100 µM and the TGI [51] was > 100 µM. For the same compound, the TGI [52] was > 100 µM, the TGI [53] was > 100 µM and the TGI [54] was > 100 µM. For the same compound, the TGI [55] was > 100 µM, the TGI [56] was > 100 µM and the TGI [57] was > 100 µM. The TGI [58] was > 100 µM.
